# Experimental data taken from patent publication US20090130239A1, “METHOD FOR PREVENTING OR TREATING EDEMA OR DERMATITIS USING GLEHNIA LITTORALIS FR. SCHMIDT ET MIQUEL EXTRACT” (Korea Institute of Oriental Medicine, priority 2007, published 2009).
# System: TPA induced immune cell infiltration and epidermal hyperproliferation
# Assay: Histopathological analysis of ear tissues (H&E), TPA induced acute dermatitis
# Type: in vivo, mouse
# Details: ear tissue, 6 hours after TPA, extract 400 mg/kg, indomethacin 10 mg/kg, compared with TPA treated group
# Experimental: C57BL/6J male mouse at 5 weeks (DAE HAN BIOLINK CO., LTD.), the most widely used inflammation animal model, was adapted to the experimental environment for 1 week. Total 40 mice were group into 4 (10 mice per each group). TPA (12-O-Tetrade-canoylphobol 13-acetate) was locally applied (2.5 ug/20 ul acetone) to the right ears of 6 week old mice to induce edema and dermatitis. The left ears of the mice were used as the negative control, to which an excipient (20 ul of acetone) was treated. The experimental group was treated with Glehnia littoralis Fr. Schmidt et Miquel extract (400 mg/kg) by intraperitoneal injection one hour before TPA treatment. The positive control group was administered with indomethacin (10 mg/kg) one hour before TPA treatment and the negative control was administered with saline by the same manner.
# Inflammation was induced for 6 hours by the same manner as described in Experimental Example <1-1> and then the animal was sacrificed. […] In the […], edema and inflammation accompanying symptoms of migration and infiltration of polymorphonuclear leukocytes were induced. In the meantime, in the experimental group (C) administered with Glehnia littoralis Fr. […]
smiles,measurement,value
COc1ccc2c(c1)c(CC(=O)O)c(C)n2C(=O)c1ccc(Cl)cc1 [indomethacin],infiltration of immune cells and epidermal hyperproliferation,inhibition
